# From publication PMC8960591, “PCSK9 acts as a key regulator of Aβ clearance across the blood–brain barrier” (Cellular and Molecular Life Sciences: CMLS, 2022)
# B1: Evolocumab: FDA-approved monoclonal anti-PCSK9 antibody (Amgen) (antibody, chains of the INN, looked up, V domains shown)
# VH: EVQLVQSGAEVKKPGASVKVSCKASGYTLTSYGISWVRQAPGQGLEWMGWVSFYNGNTNYAQKLQGRGTMTTDPSTSTAYMELRSLRSDDTAVYYCARGYGMDVWGQGTTVTVSS
# VL: ESALTQPASVSGSPGQSITISCTGTSSDVGGYNSVSWYQQHPGKAPKLMIYEVSNRPSGVSNRFSGSKSGNTASLTISGLQAEDEADYYCNSYTSTSMVFGGGTKLTVL
# How the values were obtained:
# 5xFAD mice [1] = test: Fear conditioning (contextual and cued fear response, behaviour in training phase); assay type: in vivo, mouse; conditions: n = 8–13 per group
# Procedure: (§1) 14-weeks-old female 5xFAD transgenic or wildtype littermates were randomized into groups with similar average body weights (18–20 g), respectively. 1 µg/g Alirocumab (Sanofi), Evolocumab (Amgen), or non-specific human IgG2 control antibody (Bio X Cell) in 0.9% isotonic saline solution (BBraun) or the analogous volume of pure 0.9% isotonic saline solution were weekly i.p. injected for a period of 10 weeks. 7 days before starting the injection procedure LRP1^BE−/− was induced by i.p. injection of 75 µg/g tamoxifen (Sigma-Aldrich) for 5 consecutive days and maintained with chow containing 400 mg/kg tamoxifen citrate (LASvendi). To sacrifice animals, mice were anesthetized with 100 µg/g ketamine (Pfizer) in combination with 10 µg/g xylazine (Bayer HealthCare) and euthanized by cervical dislocation.
# 24-week-old female 5xFAD mice LRP1^BEfl/fl or LRP1^BE−/− and wildtype age-matched female littermates treated as described earlier were assessed for contextual and cued fear response adapted to previous studies, using the computerized TSE Multi Conditioning System (TSE GmbH). Movement was assessed by high-resolution infrared sensors (100 Hz) in three dimensions (14 mm distant) and documented by the FCS software. In the training phase, mice were placed in the conditioning chamber for 3 min, followed by a 30-s tone application (72 dB, 9 kHz). During the last 2 s, the tone was accompanied by shock delivery (0.7 mA). Contextual memory testing was performed 24 h-post conditioning, confronting the animals 3 min to the training context without tone application. Cued memory was assessed 2 h later, by pre-exposing the animals 3 min to a non-conditioned context, followed by a tone application for 60 s according to the training session. Freezing behavior (the absence of all but respiratory movements ≥ 2 s), motoric abilities, environmental behavior (% of explored area), and activity (≥ 30 mm/s)/hyperactivity (≥ 200 mm/s) levels were recorded automatically.
# Fig. 6 Peripheral PCSK9 inhibition improves contextual memory formation of 5xFAD transgenic mice in a Fear Conditioning paradigm. 6-month-old 5xFAD mice treated with 1 µg/g Alirocumab or 0.9% NaCl for 10 weeks were analyzed for A hippocampus-dependent contextual fear response and B hippocampus-independent cued fear response in comparison to wildtype and LRP1^BE−/− littermates. […] Higher freezing behavior percentage indicates stronger memory formation. Data represent mean ± SEM of n = 8–13 mice per group. For statistical analyses one-way ANOVA followed by Tukey’s multiple comparison test was used (*p < 0.05; **p < 0.01)
# 5xFAD mice [2] = test: Brain Aβ1–40 and Aβ1–42 ELISA of soluble and insoluble brain fractions after repetitive anti-PCSK9 antibody injection; assay type: in vivo, mouse; conditions: n = 4–14 per group
# Procedure: as §1
# Extracted blood was supplemented with an EDTA-free protease inhibitor cocktail (Roche Applied Science) and allowed to clot at room temperature for 10 min. Liver were weighed and homogenized in 3 ml/g fresh cold tissue lysis buffer [50 mmol/l Tris (pH 7.4), 150 mmol/l NaCl, 0.1% (w/v) SDS, 1% (v/v) Nonidet P-40, 0.5% (w/v) sodium deoxycholate, 1 mmol/l EDTA (pH 7.4)] containing an EDTA-free protease inhibitor cocktail using the Precellys Lysing Kit (Bertin instruments). Extracts were purified for 3 min (18,620 rcf, 4 °C). CSF samples were isolated via puncture of cisterna magna as described previously and purified for 10 min (1000 rcf, 4 °C). Brains were weighed and soluble and insoluble brain fractions sequential extracted. Initially, homogenization by a glass homogenizer occurred in 6 ml/g PBS, containing an EDTA-free protease inhibitor cocktail and 1 mmol/l EDTA (pH 7.4). The homogenate was centrifuged for 20 min (131,700 rcf, 4 °C) and the supernatant (soluble brain fraction) isolated. Subsequently, the brain pellet was homogenized in 4 ml/g PBS containing 2% (v/v) SDS using the Precellys Lysing Kit. Centrifugation was repeated and the supernatant (insoluble brain fraction) collected. The preparation of capillary-depleted brain fractions based on an established protocol. Briefly, brains were weighed, homogenized by a glass homogenizer in 6 ml/g PBS, and centrifuged for 5 min (1350 rcf, 4 °C). The pellet was resuspended in 3 ml/g PBS, containing 18% dextran (~ 70,000 g/mol; Roth), vortexed thoroughly for 1 min, and centrifuged for 10 min (4863 rcf, 4 °C). Subsequently, the supernatant (capillary-free brain fraction) was transferred, mixed thoroughly with 3 ml/g PBS, and centrifuged for 5 min (1350 rcf, 4 °C). The brain parenchymal pellet was lysed for 20 min using tissue lysis buffer containing an EDTA-free protease inhibitor cocktail and 1 mmol/l EDTA (pH 7.4) and purified for 20 min (18,620 rcf, 4 °C). Each isolated sample was snap frozen via liquid nitrogen and stored at − 80 °C.
# The levels of Aβ1–40 and Aβ1–42 in soluble and insoluble brain fractions were blindly determined using Human Amyloid β (FL) Assay Kits (Immuno-Biological Laboratories) according to the manufacturer’s protocol.
# Fig. 4 Peripheral PCSK9 inhibition reduces overall Aβ burden. […] Lanes were run on the same gel but were noncontinuous. Aβ1–40 and Aβ1–42 signals were verified by loading peptide standards. Data represent mean ± SEM of n = 4–14 mice per group. For statistical analyses one-way ANOVA followed by Tukey’s multiple comparison test was used (*p < 0.05; **p < 0.01)
# 5xFAD mice [3] = test: Immunoblot of liver lysates, serum, capillary-depleted brain fractions and CSF; assay type: in vivo, mouse; conditions: 6-month-old 5xFAD mice, 1 µg/g Alirocumab for 10 weeks vs 0.9% NaCl
# Procedure: as §1, with “To sacrifice animals, mice were anesthetized with 100 µg/g ketamine (Pfizer) in combination with 10 µg/g xylazine (Bayer HealthCare) and euthanized by cervical dislocation.” left out
# Protein concentrations were determined using the Pierce™ BCA Protein Assay Kit (Thermo Fisher Scientific) according to the manufacturer’s protocol. […]
# Fig. 3 Systemic PCSK9 inhibition increases peripheral LRP1 level. A Liver lysates, B serum, as well as C capillary-depleted brain fractions and D CSF samples of 6-month-old 5xFAD mice, treated repetitively with A–C 1 µg/g Alirocumab or D Evolocumab in comparison to A–C 0.9% NaCl or D non-specific human control IgG2 for 10 weeks were evaluated via immunoblot analyses for LRP1 (full length, α-chain, β-chain), LDL receptor, human as well as mouse IgG, and ApoE, and representatively presented. […]
# 5xFAD mice [4] = test: Plaque load quantification by immunofluorescence; assay type: in vivo, mouse; conditions: 6-month-old 5xFAD mice, 1 µg/g Alirocumab for 10 weeks vs 0.9% NaCl, plaques ≥ 80 µm2, mean
# Procedure: as §1, with “To sacrifice animals, mice were anesthetized with 100 µg/g ketamine (Pfizer) in combination with 10 µg/g xylazine (Bayer HealthCare) and euthanized by cervical dislocation.” left out
# Mice were transcardially perfused with ice-cold PBS followed by 4% Roti®-Histofix (Roth). […] Within one hemisphere 12 sections were analyzed; 6 representatives for prefrontal cortex (corresponding to bregma from 0.86 to + 0.62 mm) and 6 for the hippocampus (corresponding to bregma from − 1.82 to − 2.06 mm). Plaque load (aggregates ≥ 80 µm^2) was quantified using the NIH ImageJ 1.52 software as described previously.
# Fig. 5 Aβ plaque load of prefrontal cortex and hippocampus is reduced due to systemic PCSK9 inhibition. A Prefrontal cortex and B hippocampus of 6-month-old 5xFAD mice treated with 1 µg/g alirocumab or 0.9% NaCl for ten weeks were quantified for amyloid plaques. […]
# 5xFAD mice [5] = test: Serum LDL/VLDL and HDL cholesterol; assay type: in vivo, mouse; conditions: 6-month-old 5xFAD mice, 1 µg/g Evolocumab for 10 weeks vs non-specific human IgG2 control antibody; n = 8–9 per group
# Procedure: as §1
# Serum VLDL/LDL and HDL cholesterol were separated and concentrations blindly determined using the Cholesterol Assay Kit—HDL and LDL/VLDL (Abcam) according to the manufacturer’s protocol.
# Supplementary Fig. 2 Systemic PCSK9 inhibition reduces serum LDL/VLDL and free PCSK9 levels. (A) Serum LDL/VLDL- and (B) HDL-cholesterol levels of 6-months-old 5xFAD mice, treated repetitively with 1 µg/g Evolocumab or non-specific human IgG2 control antibody for ten weeks were assessed via ELISA. […] Levels of immunoprecipitated PCSK9 were evaluated via immunoblot analyses and representatively presented
# PCSK9 = target: T1, PCSK9 (Mus musculus, UniProt Q80W65); test: Free circulating PCSK9 in serum (immunoprecipitation with crosslinked Evolocumab, immunoblot); assay type: in vivo; conditions: 6-month-old 5xFAD mice, 1 µg/g Evolocumab for 10 weeks vs non-specific human IgG2 control antibody
# T1 construct: substantially decreases the amount of free circulating PCSK9; from tissue; host or cells: serum of 6-month-old 5xFAD mice
# T1 sequence (Q80W65 156-694): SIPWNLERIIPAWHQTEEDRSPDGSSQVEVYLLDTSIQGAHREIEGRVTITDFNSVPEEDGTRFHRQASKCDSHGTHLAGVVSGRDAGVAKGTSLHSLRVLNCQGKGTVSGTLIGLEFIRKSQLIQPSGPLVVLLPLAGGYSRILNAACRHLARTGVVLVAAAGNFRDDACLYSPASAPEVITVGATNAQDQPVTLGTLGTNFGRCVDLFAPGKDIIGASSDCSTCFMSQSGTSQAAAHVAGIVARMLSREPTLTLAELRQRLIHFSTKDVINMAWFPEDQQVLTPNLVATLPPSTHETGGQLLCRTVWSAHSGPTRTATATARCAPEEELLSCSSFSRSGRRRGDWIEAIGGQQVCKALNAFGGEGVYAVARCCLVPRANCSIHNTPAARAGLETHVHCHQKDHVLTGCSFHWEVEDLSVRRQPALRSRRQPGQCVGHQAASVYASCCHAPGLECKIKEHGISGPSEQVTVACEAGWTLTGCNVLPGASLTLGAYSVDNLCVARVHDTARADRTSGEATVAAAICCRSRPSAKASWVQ
# Procedure: Precleared serum via raw Protein A Agarose (Roche) was diluted in PBS containing an EDTA-free protease inhibitor cocktail and incubated with Protein A Agarose crosslinked to Evolocumab overnight at 4 °C. Beads were washed three times with PBS, followed by elution in 100 mmol/l glycine (pH 2.7) and neutralization with 500 mmol/l tris (pH 8.0).
# Supplementary Fig. 2 Systemic PCSK9 inhibition reduces serum LDL/VLDL and free PCSK9 levels. (A) Serum LDL/VLDL- and (B) HDL-cholesterol levels of 6-months-old 5xFAD mice, treated repetitively with 1 µg/g Evolocumab or non-specific human IgG2 control antibody for ten weeks were assessed via ELISA. Data represents mean ± SEM of n = 8 - 9 mice per group. For statistical analyses unpaired two-tailed t-test was used (*p <0.05). (C) Additionally, serum samples were precleared by using raw Protein A Agarose and incubated with Protein A Agarose crosslinked to Evolocumab. Levels of immunoprecipitated PCSK9 were evaluated via immunoblot analyses and representatively presented
# [6] = 5xFAD LRP1BE−/− mice, 1 µg/g Alirocumab for 10 weeks vs 0.9% NaCl
# [7] = 6-month-old 5xFAD mice, 1 µg/g Alirocumab for 10 weeks vs 0.9% NaCl
# [8] = 6-month-old female 5xFAD mice, 1 µg/g Alirocumab i.p. weekly for 10 weeks vs 0.9% NaCl, mean
Molecule,hippocampus-dependent learning capacity (contextual fear) (5xFAD mice [1]; [6]),"hippocampus-independent cued fear response (5xFAD mice [1]; 5xFAD, 5xFAD LRP1BE−/− and wildtype littermates, PCSK9 inhibition or control, 2 h after contextual test)","contextual fear response (freezing) vs control-treated 5xFAD mice (5xFAD mice [1]; 6-month-old 5xFAD mice, 1 µg/g Alirocumab for 10 weeks vs 0.9% NaCl, 24 h post-training)",activity and hyperactivity levels and basal freezing during the conditioning phase (5xFAD mice [1]; [7]),motoric abilities and environmental behavior during the conditioning phase (5xFAD mice [1]; [7]),"contextual freezing vs control-treated wildtype littermates (5xFAD mice [1]; 6-month-old 5xFAD mice, 1 µg/g Alirocumab for 10 weeks, 24 h post-training)","contextual freezing, treated vs control-treated wildtype animals (5xFAD mice [1]; wildtype littermates, 1 µg/g Alirocumab for 10 weeks vs 0.9% NaCl)",soluble and insoluble Aβ1–40 and Aβ1–42 levels vs control-treated mice (5xFAD mice [2]; [6]),reduction of insoluble brain Aβ1–40 (5xFAD mice [2]; [8]),reduction of insoluble brain Aβ1–42 (5xFAD mice [2]; [8]),reduction of soluble brain Aβ1–40 (5xFAD mice [2]; [8]),reduction of soluble brain Aβ1–42 (5xFAD mice [2]; [8]),peripheral LRP1 level (liver lysates) (5xFAD mice [3]),"reduction of plaque load, hippocampus (5xFAD mice [4]; n = 3–4 per group)","reduction of plaque load, prefrontal cortex (5xFAD mice [4]; n = 8 per group)",serum LDL/VLDL-cholesterol level (5xFAD mice [5]),free PCSK9 level in serum (PCSK9)
Alirocumab: FDA-approved monoclonal anti-PCSK9 antibody (Sanofi),do not significantly benefit,no significant differences,significant increased,No differences,No differences,no significant difference,did not detect any significant difference,no significant difference,~ 44%,~ 38%,~ 58%,~ 51%,increases,~ 23%,~ 17%,,
B1,,,,,,,,,,,,,,,,reduces,reduces
